# Measured values from paper PMC11945487 (Viruses, 2025).
# Tests used:
# SARS-CoV-2 M^pro = SARS-CoV-2 M^pro (Severe acute respiratory syndrome coronavirus 2, UniProt P0DTD1); format: binding; settings: modified Stern–Volmer plot
# [1] = ref [41]; cited from earlier work
# HEK293 cells = assay: MTT cytotoxicity assay; format: cell-based, human; settings: HEK293, 24 h, 0 to 100 µM
SMILES,KSV (SARS-CoV-2 M^pro) [M⁻¹],number of binding sites (SARS-CoV-2 M^pro),solubility in organic solvents [1],cytotoxicity / cell viability (HEK293 cells)
"COc1cc2ccc(=O)oc2cc1O [Scopoletin, 6-methoxy-7-hydrocoumarian]",932000,one,dissolves in organic solvents such as methanol and chloroform,maintained acceptable cell viability
O=c1c(O)c(-c2ccc(O)c(O)c2)oc2cc(O)cc(O)c12 [Quercetin],,,,consistent and high cell viability
